In patent US12060439B2, “Polymorph of echinocandin antifungal agent” (Cidara Therapeutics, Inc., priority 2018, dated 2024):
Starred links: 1 amine or outer side, 2 acyl side, 3 side chain; linkers in the order of their positions; H or OH if unused. Positions of bridges follow the written chain, without caps; N, C: chain ends. Non-standard residues stand in square brackets, D forms with d. Residues, ends and D or L forms follow the SMILES beside them. *: point of attachment. Orn(4R-OH,5R-OCH2CH2NMe3+) = C[N+](C)(C)CCO[C@@H](N[*:3])[C@H](O)C[C@H](N[*:1])C(=O)[*:2]; pTerphenylCO(4''-OnC5H11) = CCCCCOc1ccc(-c2ccc(-c3ccc(C(=O)*)cc3)cc2)cc1; hTyr(3S-OH,4S-OH) = N[C@H](C(=O)O)[C@H](O)[C@@H](O)c1ccc(O)cc1; Pro(3S-OH,4S-Me) = C[C@H]1CN[C@H](C(=O)O)[C@H]1O; Hyp = O=C(O)[C@@H]1C[C@@H](O)CN1

Experiments:
Format in all cases: physicochemical
[1] = Solid form stability of polymorph on drying or storage, analysed by XRPD
Protocol: Compound 1 acetate Type E (1 g) was added to a beaker and dried in the vacuum oven at 40° C. overnight (not more than 18 hours). The solid was analyzed by XRPD analysis and shown to be Type B (FIG. 6).
Four samples of compound 1 acetate Type E were added to vials and placed in a desiccator, under vacuum, for up to 7 days.

[2] = Dynamic vapour sorption experiment; conditions: for weight gain during the sorption isotherm: from 40-80% RH, 10% RH increments
Protocol: Further weight loss above 160° C. may correspond with the onset of decomposition. A dynamic vapour sorption experiment of Type B material was performed. The sample was subjected to a step profile from 40-90% RH at 10% increments, followed by desorption from 90-0% RH at 10% increments and then adsorption from 0-40% RH at 10% increments.
A dynamic vapour sorption experiment of Type E material was performed. The sample was subjected to a step profile from 40 to 90% RH at 10% increments, followed by desorption from 90 to 0% RH at 10% increments and then adsorption from 0 to 40% RH at 10% increments. […] There was a larger weight gain above 80% RH.

[3] = Slurrying in EtOH at 40° C., form transformation by XRPD; conditions: after 3 days
[4] = Form stability as a function of ethanol activity (aEtOH)
Protocol: Compound 1 acetate and a solvent or solvent mixture were added to a vial and stirred at ambient temperature overnight to form a saturated suspension. Ethanol (EtOH) activity (aEtOH) of the solvent or solvent mixture was calculated using UNIFAC software. A further aliquot of the solvent or solvent mixture was added to the vial if the mixture was very thick. If all solids had dissolved, further amounts of compound 1 acetate were added and the mixture was stirred overnight. The slurry was then seeded with compound 1 acetate and compound 1 acetate-EtOH solvate and allowed to stir at ambient temperature for several days before isolation of solids and analysis by XRPD.
Compound 1 acetate Type E is a metastable solvate and converts to compound 1 acetate Type B on drying or storage at low ethanol activity (aEtOH<0.2). Type E was stable at an EtOH activity of >0.8.

[5] = Ambient conditions (44-63% RH, 20-25° C.) for 5 days
[6] = ambient temperature in the desiccator

Compound: CCCCCOc1ccc(-c2ccc(-c3ccc(C(=O)N[C@H]4C[C@@H](O)[C@@H](OCC[N+](C)(C)C)NC(=O)[C@@H]5[C@@H](O)[C@@H](C)CN5C(=O)[C@H]([C@@H](C)O)NC(=O)[C@H]([C@H](O)[C@@H](O)c5ccc(O)cc5)NC(=O)[C@@H]5C[C@@H](O)CN5C(=O)[C@H]([C@@H](C)O)NC4=O)cc3)cc2)cc1 [Type B] ({pTerphenylCO(4''-OnC5H11)}-[Orn(4R-OH,5R-OCH2CH2NMe3+)]T[Hyp][hTyr(3S-OH,4S-OH)]T[Pro(3S-OH,4S-Me)]; lactam 1-C)
- XRPD Result [1, 5]: Type B
- weight gain during the sorption isotherm [2]: 6%
- form transformation to Type A (XRPD) [3]: no form transformation

Compound: CCCCCOc1ccc(-c2ccc(-c3ccc(C(=O)N[C@H]4C[C@@H](O)[C@@H](OCC[N+](C)(C)C)NC(=O)[C@@H]5[C@@H](O)[C@@H](C)CN5C(=O)[C@H]([C@@H](C)O)NC(=O)[C@H]([C@H](O)[C@@H](O)c5ccc(O)cc5)NC(=O)[C@@H]5C[C@@H](O)CN5C(=O)[C@H]([C@@H](C)O)NC4=O)cc3)cc2)cc1 [Type E] ({pTerphenylCO(4''-OnC5H11)}-[Orn(4R-OH,5R-OCH2CH2NMe3+)]T[Hyp][hTyr(3S-OH,4S-OH)]T[Pro(3S-OH,4S-Me)]; lactam 1-C)
- EtOH activity at which the form was stable [4]: > 0.8
- ethanol activity at which the form converts to Type B on storage ([4]; low ethanol activity): < 0.2
- XRPD Result [1, 5]: Type B
- XRPD Result ([1]; Desiccator under vacuum at ambient conditions for 4 hours): Type E
- XRPD Result ([1]; Desiccator under vacuum at ambient conditions for 1 day): Type B + Type E
- XRPD Result ([1]; Desiccator under vacuum at ambient conditions for 5 days): Type B
- XRPD Result ([1]; Desiccator under vacuum at ambient conditions for 7 days): Type B
- time for which the form was stable [1, 6]: up to 4 hours
- time to complete conversion to Type B [1, 6]: ≤ 5 days
- XRPD Result after drying ([1]; vacuum oven at 40° C. overnight (not more than 18 hours)): Type B
- weight loss during the equilibration hold ([2]; equilibration hold at 40% RH): ~18.5%
- weight gain during the sorption isotherm [2]: 5%
